Results on five molecules are retold here after patent publication US11242337B2, “Compounds useful for treating gastrointestinal tract disorders” (Ardelyx, Inc., priority 2017, dated 2022).

Structures are written as SMILES. Like-named read-outs stand apart in the source and are kept apart here.

In assay [1] the target is T1, NHE3 (Homo sapiens, UniProt P48764).
T1 construct: expressed in transfected cells
T1 sequence (P48764 26-834): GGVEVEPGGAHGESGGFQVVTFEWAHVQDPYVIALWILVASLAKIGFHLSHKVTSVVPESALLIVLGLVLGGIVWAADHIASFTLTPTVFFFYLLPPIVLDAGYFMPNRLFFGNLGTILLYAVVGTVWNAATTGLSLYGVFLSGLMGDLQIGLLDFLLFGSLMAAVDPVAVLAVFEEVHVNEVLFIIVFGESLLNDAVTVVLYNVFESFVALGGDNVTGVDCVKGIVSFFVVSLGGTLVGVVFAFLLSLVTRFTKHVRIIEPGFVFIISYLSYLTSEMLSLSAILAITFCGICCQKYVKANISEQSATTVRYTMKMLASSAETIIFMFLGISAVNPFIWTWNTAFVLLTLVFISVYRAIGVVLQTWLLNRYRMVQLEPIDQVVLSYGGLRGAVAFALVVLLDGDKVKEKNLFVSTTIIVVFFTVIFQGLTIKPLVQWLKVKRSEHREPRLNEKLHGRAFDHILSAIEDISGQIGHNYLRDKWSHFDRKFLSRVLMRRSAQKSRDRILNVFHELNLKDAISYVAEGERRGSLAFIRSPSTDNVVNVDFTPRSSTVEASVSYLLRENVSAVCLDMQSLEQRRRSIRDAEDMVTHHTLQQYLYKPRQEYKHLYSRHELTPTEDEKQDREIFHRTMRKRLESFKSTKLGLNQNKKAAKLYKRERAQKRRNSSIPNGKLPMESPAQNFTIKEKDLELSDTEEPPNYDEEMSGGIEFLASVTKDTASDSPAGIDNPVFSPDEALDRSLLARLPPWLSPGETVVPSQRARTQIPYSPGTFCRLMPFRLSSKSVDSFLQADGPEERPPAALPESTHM
T1 sequence (Q99653 2-195 partner limits assumed): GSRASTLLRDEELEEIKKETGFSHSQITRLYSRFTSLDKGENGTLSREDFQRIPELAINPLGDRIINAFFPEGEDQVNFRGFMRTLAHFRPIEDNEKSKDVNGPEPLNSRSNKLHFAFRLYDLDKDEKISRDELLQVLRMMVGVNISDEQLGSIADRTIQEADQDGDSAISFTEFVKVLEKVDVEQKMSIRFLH
Briefly: persistent inhibition of NHE3 in the cell-based assay of example 181 (4-chloro vs 4-cyano pairs). The method, then: The following pairs of compounds differ only in the 4-position substituent (either chloro (X—Cl) or cyano (X—CN)):
The ability of compounds to inhibit human and rat NHE-3-mediated Na^+ dependent H^+ antiport after application and washout was measured using a modification of the pH sensitive dye method described above. PS120 fibroblasts stably expressing human NHE3 and NHERF2 were obtained from Mark Donowitz (Baltimore, Md.). Opossum kidney (OK) cells were obtained from the ATCC and propagated per their instructions. The rat NHE-3 gene was introduced into OK cells via electroporation, and cells were seeded into 96 well plates and grown overnight. Medium was aspirated from the wells, cells were washed once with NaCl-HEPES buffer (100 mM NaCl, 50 mM HEPES, 10 mM glucose, 5 mM KCl, 2 mM CaCl2, 1 mM MgCl2, pH 7.4), then overlayed with NaCl-HEPES buffer containing 0-30 μM test compound. After a 60 min incubation at room temperature, the test drug containing buffer was aspirated from the cells. Following aspiration, cells were washed once with NaCl-HEPES buffer without drug, then incubated for 30 min at 37° C. with NH4Cl-HEPES buffer (20 mM NH4Cl, 80 mM NaCl, 50 mM HEPES, 5 mM KCl, 2 mM CaCl2, 1 mM MgCl2, pH 7.4) containing 5 μM BCECF-AM. Cells were washed once with Ammonium free, Na^+-free HEPES (100 mM choline, 50 mM HEPES, 10 mM glucose, 5 mM KCl, 2 mM CaCl2, 1 mM MgCl2, pH 7.4) and incubated in the same buffer for 10 minutes at room temperature to lower intracellular pH. NHE-3-mediated recovery of neutral intracellular pH was initiated (10 min after compound washout) by addition of Na-HEPES buffer. […] Changes in intracellular pH were monitored using a FLIPR Tetra® (Molecular Devices, Sunnyvale, Calif.) by excitation at λex 439 to 505 nm, and measuring BCECF fluorescence at λem 538 nm. The initial rate of the fluorescence ratio change was used as a measure of NHE-mediated Na^+/H^+ activity, and reported as the change in fluorescence ratio per minute.

The target of assay [2] is T1, NHE3. Description: Cell-based assay of NHE-3 activity (persistent inhibition), human. The following applies: human Persistence, 60 min incubation then washout. In short, it runs like this: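 Persistent inhibition: compound (0-30 μM, 60 min, RT, NaCl-HEPES pH 7.4) removed before assay. Human NHE3/NHERF2 PS120 cells were then BCECF-loaded during NH4Cl pulse (30 min, 37 °C), acidified in Na+-free buffer, and Na+ added 10 min after washout; antiport measured as initial fluorescence-ratio change per minute.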

Assay [3] has as its system absorption of sodium from the intestinal lumen. Description: Inhibition of intestinal sodium absorption in mice. The assay is classed as in vivo. The following applies: CD-1 mice, 15 mg/kg oral gavage twice daily; for response vs control in vivo at 15 mg/kg: Mus musculus, 72 h, day 3, normalized to dietary sodium intake. The procedure:
Urinary and fecal sodium excretions were measured to assess the ability of selected example compounds to inhibit the absorption of sodium from the intestinal lumen. In addition, an assessment of the absence or presence of diarrhea in response to compound treatment was made. Approximately eight-week old, male, CD-1 mice were purchased from Envigo (Livermore, Calif.), were housed 6 per cage and acclimated for at least 48 hours before study initiation. Animals were fed Harlan Teklad Global TD.160470 rodent chow (Madison, Wis.), standard laboratory rodent chow Harlan Teklad Global 2018 with the addition of 0.4% inorganic phosphorous. […] To initiate the study, mice were weighed and then individually placed in metabolic cages. Following a 3-day acclimation period to the metabolic cage, a 24-hr baseline collection of urine and feces was performed. […] Each day, measurements of body weight. 24-hour food intake, water intake, urine volume and wet fecal weight were recorded, along with any observation of diarrhea. Fecal samples were dried using a lyophilizer for at least 3 days, following which dry weight was recorded and fecal fluid content was calculated based on the difference between the wet and dry stool weights. Fecal fluid content on day 3 of compound treatment was calculated as a change from the vehicle group mean. For urine samples, the volumes were determined gravimetrically. Feces and urine were analyzed for sodium content by microwave plasma-atomic emission spectroscopy or ion chromatography, respectively. Urine samples were analyzed on an ion chromatography system (Thermo Fisher ICS-3000 or ICS-5000+) coupled with conductivity detectors. Chromatographic separation of cations was performed using an IonPac CS12A (Thermo Fisher) 2×250 mm analytical column with an isocratic elution using […] methanesulfonic acid. Concentrations were interpolated from a a standard curve (prepared in 10 mM HCl) for sodium ion based on retention time and peak area. Fecal sample analysis by Microwave Plasma Atomic Emission Spectrometry (MP-AES). Dry fecal samples were ground into a fine powder on a homogenizer and the ground samples (400-600 mg aliquots weighed) were digested with nitric acid by microwave method (Mars 6). These digested samples were diluted with 1% Nitric acid and analyzed on Agilent 4100 MP-AES. Concentrations were calculated relative to a standard curve (prepared in 1% Nitric acid) for sodium based on the signal intensity. Sodium was detected at a wavelength of 588.995 nm. Twenty-four-hour urinary sodium excretion (ma/24-hours) was calculated by multiplying urinary sodium concentration by 24-hour urine volume. Twenty-four-hour fecal sodium excretion (mg/24-hours) was calculated by multiplying fecal sodium concentration by 24-hour dry fecal weight. The urinary and fecal sodium excretion on day 3 of compound treatment were normalized to dietary sodium intake and expressed as a percentage of the vehicle mean.

For assay [4], the target named is T1, NHE3. Briefly: Cell-based assay of NHE-3 activity (pre-incubation inhibition), human. The conditions noted are these: human Preincubation; for pIC50: 0-30 μM test compound. A digest of the protocol: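 Activity read as initial rate of BCECF fluorescence ratio change per minute (ex 439/505, em 538 nm) following NH4Cl prepulse acid loading. Compound (0–30 μM) present during 10 min Na+-free acidification at room temperature; cells were PS120 fibroblasts stably co-expressing human NHE3 and NHERF2.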

For the molecule `C[C@@H]1CN([C@H]2Cc3c(C#N)cc(Cl)cc3[C@@H]2Oc2ccc(S(=O)(=O)N[C@@H]3CCN(CCOCCNC(=O)NCCCCNC(=O)NCCOCCN4CC[C@@H](NS(=O)(=O)c5ccc(O[C@H]6c7cc(Cl)cc(C#N)c7C[C@@H]6N6CCN[C@H](C)C6)cc5)C4)C3)cc2)CCN1` [A-CN, 3-(2-{2-[(3R)-3-(4-{[(1S,2S)-6-chloro-4-cyano-2-[(3R)-3-methylpiperazin-1-yl]-2,3-dihydro-1H-inden-1-yl]oxy}benzenesulfonamido)pyrrolidin-1-yl]ethoxy}ethyl)-1-(4-{[(2-{2-[(3R)-3-(4-{[(1S,2S)-6-chloro-4-cyano-2-[(3R)-3-methylpiperazin-1-yl]-2,3-dihydro-1H-inden-1-yl]oxy}benzenesulfonamido)pyrrolidin-1-yl]ethoxy}ethyl)carbamoyl]amino}butyl)urea], the IC50 at NHE3 [1] (cell-based assay of example 181, after washout, read-out: pIC50 (persistent) (converted)) was 0.631 nM. Besides, the “Percent Inhibition” value at NHE3 [1] (cell-based assay of example 181, persistent) amounted to 101%.
Turning to `CN(C)[C@@H]1CCCN([C@H]2Cc3c(Cl)cc(Cl)cc3[C@@H]2Oc2ccc(S(=O)(=O)NCCOCCOCCNC(=O)NCCCCNC(=O)NCCOCCOCCNS(=O)(=O)c3ccc(O[C@H]4c5cc(Cl)cc(Cl)c5C[C@@H]4N4CCC[C@@H](N(C)C)C4)c(F)c3)cc2F)C1` [Example 27, 3-[2-(2-[2-[(4-[[(1S,2S)-4,6-Dichloro-2-[(3R)-3-(dimethylamino)piperidin-1-yl]-2,3-dihydro-1H-inden-1-yl]oxy]-3-fluorobenzene)sulfonamido]ethoxy]ethoxy)ethyl]-1-[4-([[2-(2-[2-[(4-[[(1S,2S)-4,6-dichloro-2-[(3R)-3-(dimethylamino)piperidin-1-yl]-2,3-dihydro-1H-inden-1-yl]oxy]-3-fluorobenzene)sulfonamido]ethoxy]ethoxy)ethyl]carbamoyl]amino)butyl]urea; bis(trifluoroacetic acid)], the “% inhibition” value on NHE3 [2] and at NHE3 [4] was “C (>70%)” throughout. Further, the “Fecal fluid content (Δ from vehicle)” value in assay [3] (day 3, change from vehicle group mean) is “C (>10)”. Also, the response vs control in vivo at 15 mg/kg was above 200% in assay [3] (read-out: Fecal Na Excretion (% of vehicle)) and 50 to 70% in assay [3] (read-out: Urinary Na Excretion (% of vehicle)).
For the molecule `N#Cc1cc(Cl)cc2c1C[C@H](N1CCNCC1)[C@H]2Oc1ccc(S(=O)(=O)N[C@@H]2CCN(C(=O)CCCNC(=O)NCCCCNC(=O)NCCCC(=O)N3CC[C@@H](NS(=O)(=O)c4ccc(O[C@H]5c6cc(Cl)cc(C#N)c6C[C@@H]5N5CCNCC5)cc4)C3)C2)cc1` [Example 142, 4-([(1S,2S)-6-Chloro-4-cyano-2-(piperazin-1-yl)-2,3-dihydro-1H-inden-1-yl]oxy)-N—[(R)-1-(18-[(R)-3-([4-([(1S,2S)-6-chloro-4-cyano-2-(piperazin-1-yl)-2,3-dihydro-1H-inden-1-yl]oxy)phenyl]sulfonamido)pyrrolidin-1-yl]-6,13,18-trioxo-5,7,12,14-tetraazaoctadecanoyl)pyrrolidin-3-yl]benzenesulfonamide], at NHE3 [2], the “% inhibition” value is “C (>70%)” and the pIC50 result is recorded as “C (NHE3 pIC50 > 7)”. At NHE3 [4], the “% inhibition” value is listed as “C (>70%)” and the pIC50 entry is given as “C (NHE3 pIC50 > 7)”.
With `N#Cc1cc(Cl)cc2c1C[C@H](N1CCNCC1)[C@H]2Oc1ccc(S(N)(=O)=O)cc1` [Example 146, 4-([(1S,2S)-6-Chloro-4-cyano-2-(piperazin-1-yl)-2,3-dihydro-1H-inden-1-yl]oxy)benzenesulfonamide], the “% inhibition” value at NHE3 [2] is listed as “A (NHE3 < 40%)”; on NHE3 [4] it was “C (>70%)”. The pIC50 result against NHE3 [2] and against NHE3 [4] was “C (NHE3 pIC50 > 7)” each time.
With `N#Cc1cc(Cl)cc2c1C[C@H](N1CCNCC1)[C@H]2Oc1ccc(S(=O)(=O)NC2CCN(C(=O)CCCNC(=O)NCCCC(=O)N3CCC(NS(=O)(=O)c4ccc(O[C@H]5c6cc(Cl)cc(C#N)c6C[C@@H]5N5CCNCC5)cc4)CC3)CC2)cc1` [Example 154, 4-([(1S,2S)-6-Chloro-4-cyano-2-(piperazin-1-yl)-2,3-dihydro-1H-inden-1-yl]oxy)-N-[1-(4-[3-(4-[4-([4-([(1S,2S)-6-chloro-4-cyano-2-(piperazin-1-yl)-2,3-dihydro-1H-inden-1-yl]oxy)phenyl]sulfonamido)piperidin-1-yl]-4-oxobutyl)ureido]butanoyl)piperidin-4-yl]benzenesulfonamide], the “% inhibition” value at NHE3 [2] and at NHE3 [4] was “C (>70%)” throughout. For the same molecule, the pIC50 result at NHE3 [2] and against NHE3 [4] was “C (NHE3 pIC50 > 7)” throughout.
